Test results: the NIST ThermoML archive (doi:10.1016/j.jct.2007.11.011)

Conditions: Liquid

CCOS(=O)(=O)[O-].CCn1cc[n+](C)c1 [1-ethyl-3-methylimidazolium ethyl sulfate]
mass density [kg/m3]
Conditions	100 kPa	2500 kPa	5000 kPa	10000 kPa	15000 kPa	20000 kPa	25000 kPa	30000 kPa	35000 kPa
283.15 K	1246.94	1247.9	1248.89	1250.85	1252.79	1254.73	1256.61	1258.47	1260.31
293.15 K	1239.88	1240.89	1241.91	1243.9	1245.88	1247.83	1249.76	1251.66	1253.57
298.15 K	1236.35	1237.35	1238.4	1240.44	1242.46	1244.44	1246.41	1248.35	1250.23
303.15 K	1232.72	1233.78	1234.83	1237	1239.02	1241.03	1243.02	1244.98	1246.84
313.15 K	1226.06	1227.11	1228.18	1230.3	1232.38	1234.45	1236.48	1238.47	1240.45
323.15 K	1219.19	1220.23	1221.36	1223.53	1225.69	1227.8	1229.93	1231.96	1233.91
333.15 K	1212.42	1213.53	1214.66	1216.87	1219.08	1221.24	1223.33	1225.42	1227.46
